Molecules are shown by their SMILES.

This assay deals with Dephosphorylated BTK (Homo sapiens, UniProt Q06187). The assay is described as follows: Test of activity inhibition against dephosphorylated BTK (mobility shift assay).
Sequence of Dephosphorylated BTK (Q06187 whole entry): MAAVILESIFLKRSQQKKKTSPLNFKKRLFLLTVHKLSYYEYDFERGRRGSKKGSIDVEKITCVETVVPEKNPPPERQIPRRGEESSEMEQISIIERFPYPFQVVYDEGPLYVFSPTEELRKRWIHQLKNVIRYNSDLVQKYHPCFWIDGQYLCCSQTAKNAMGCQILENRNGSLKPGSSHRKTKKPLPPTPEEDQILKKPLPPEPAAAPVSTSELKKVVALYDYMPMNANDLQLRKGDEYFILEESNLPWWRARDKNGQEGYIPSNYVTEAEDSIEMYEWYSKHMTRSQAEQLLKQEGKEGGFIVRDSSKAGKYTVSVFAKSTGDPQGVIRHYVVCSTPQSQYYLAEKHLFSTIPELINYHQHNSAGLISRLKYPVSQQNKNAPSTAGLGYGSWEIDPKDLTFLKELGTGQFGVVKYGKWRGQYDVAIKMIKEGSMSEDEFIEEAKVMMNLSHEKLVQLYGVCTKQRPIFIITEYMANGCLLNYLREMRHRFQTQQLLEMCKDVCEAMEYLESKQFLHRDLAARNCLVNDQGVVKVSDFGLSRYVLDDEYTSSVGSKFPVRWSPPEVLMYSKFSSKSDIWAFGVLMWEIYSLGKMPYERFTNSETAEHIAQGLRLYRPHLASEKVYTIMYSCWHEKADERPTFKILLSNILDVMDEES
Method: Kinase activity was measured by a mobility shift assay (MSA) method using QuickScout Screening Assist (trademark) MSA (commercially available kit, manufactured by Carna Biosciences, Inc.). FITC-labeled SRCtide peptide supplied with the kit was used as a substrate of a kinase reaction.
IC50 value was calculated by regression analysis of the inhibition ratio and the test compound concentration (logarithm).
Dephosphorylated BTK was obtained by adding a A protein phosphatase (Code No. P0753S, manufactured by New England BioLabs Inc.) and MnCl2 to a biotinylated BTK protein BTN-BTK (manufactured by Carna Biosciences, Inc.) enzyme solution so as to adjust the concentrations to 10 U/μg and 2 mM, respectively, reacting the mixture at 4° C. overnight, removing the A protein phosphatase through anti-[sequence]-tag antibody agarose gel chromatography, and performing buffer exchange using 10DG Desalting Column.
With `Nc1nc(Nc2ccc(N3CCN(C=O)CC3)cc2)nc(-c2cccc(N3CCc4cc(C5CC5)cc(F)c4C3=O)c2CO)n1` [Example 189, 4-[4-({4-Amino-6-[3-(6-cyclopropyl-8-fluoro-1-oxo-3,4-dihydroiso-quinolin-2(1H)-yl)-2-(hydroxymethyl)phenyl]-1,3,5-triazin-2-yl}amino)phenyl]pipera-zine-1-carbaldehyde], the IC50 worked out at 1.2 nM.

With `Nc1nc(Nc2ccn(C3CC3)c2)nc(-c2cccc(N3CCc4cc(C5CC5)cc(F)c4C3=O)c2CO)n1` [Example 277, 2-(3-{4-Amino-6-[(1-cyclo-propyl-1H-pyrrol-3-yl)amino]-1,3,5-tri-azin-2-yl}-2-(hydroxy-methyl)phenyl)-6-cyclo-propyl-8-fluoro-3,4-dihydroisoquinolin-1(2H)-one], the IC50 worked out at 3.3 nM.

Take `Nc1nc(Nc2cnn(CC3CCOCC3)c2)nc(-c2cccc(N3CCc4cc(C5CC5)cc(F)c4C3=O)c2CO)n1` [Example 257, 2-{3-[4-Amino-6-({1-[(tetra-hydro-2H-pyran-4-yl)methyl]-1H-pyrazol-4-yl}amino)-1,3,5-triazin-2-yl]-2-(hydroxy-methyl)phenyl}-6-cyclo-propyl-8-fluoro-3,4-dihydroisoquinolin-1(2H)-one]: the IC50 came out at 0.6 nM.

Regarding `NC(=O)c1cc(Nc2nc(N)nc(-c3cccc(N4CCc5cc(C6CC6)cc(F)c5C4=O)c3CO)n2)c[nH]1` [Example 255, 4-({4-Amino-6-[3-(6-cyclo-propyl-8-fluoro-1-oxo-3,4-dihydroisoquino-lin-2(1H)-yl)-2-(hydroxy-methyl)phenyl]-1,3,5-triazin-2-yl}ami-no)-1H-pyrrole-2-carboxamide], the IC50 stood at 0.5 nM.

Consider `CC(C1CC1)n1cc(Nc2nc(N)nc(-c3cccc(N4CCc5cc(C6CC6)cc(F)c5C4=O)c3CO)n2)cn1` (centres unmarked) [Example 270, 2-[3-(4-Amino-6-{[1-(1-cyclopropylethyl)-1H-pyrazol-4-yl]amino}-1,3,5-triazin-2-yl)-2-(hydroxymethyl)phe-nyl]-6-cyclopropyl-8-fluoro-3,4-dihydroiso-quinolin-1(2H)-one], for which the IC50 stood at 0.7 nM.

Take `Cc1c(NC(=O)c2ccc(C(C)(C)C)cc2)cccc1-c1nc(N)nc(Nc2ccc(N3CCC(N4CCOCC4)CC3)cc2)n1` [Example 80, N-[3-(4-Amino-6-{[4-(4-morpholinopiperidin-1-yl)phenyl]amino}-1,3,5-triazin-2-yl)-2-methylphenyl]-4-(tert-butyl)benzamide]: the IC50 was 2.1 nM.

As to `CCOC(=O)c1cc(Nc2nc(N)nc(-c3cccc(N4CCc5cc(C6CC6)cc(F)c5C4=O)c3CO)n2)cn1C` [Example 219, Ethyl 4-({4-amino-6-[3-(6-cyclo-propyl-8-fluoro-1-oxo-3,4-dihydroisoquinolin-2(1H)-yl)-2-(hydroxy-methyl)phenyl]-1,3,5-triazin-2-yl}ami-no)-1-methyl-1H-pyrrole-2-carboxylate], the IC50 was 0.8 nM.

For the molecule `Nc1nc(Nc2ccc(CN3CCOCC3)cc2)nc(-c2cccc(NC(=O)c3cc4c(s3)CCCC4)c2CO)n1` [Example 132, N-[3-(4-Amino-6-{[4-(mor-pholinomethyl)phe-nyl]amino}-1,3,5-triazin-2-yl)-2-(hydroxymeth-yl)phenyl]-4,5,6,7-tetrahydrobenzo[b]thio-phene-2-carboxamide], the IC50 was 0.5 nM.

Turning to `NC(=O)Cn1cc(Nc2nc(N)nc(-c3cccc(N4CCc5cc(C6CC6)cc(F)c5C4=O)c3CO)n2)cn1` [Example 266, 2-[4-({4-Amino-6-[3-(6-cyclopropyl-8-fluoro-1-oxo-3,4-dihydroiso-quinolin-2(1H)-yl)-2-(hydroxymethyl)phenyl]-1,3,5-triazin-2-yl}amino)-1H-pyrazol-1-yl]acetamide], the half-maximal inhibitory concentration (IC50) was 1.3 nM.

As to `Nc1nc(Nc2cnn(C3CCOCC3)c2)nc(-c2cccc(N3CCc4cc(C5CC5)cc(F)c4C3=O)c2CO)n1` [Example 218, 2-[3-(4-Amino-6-{[1-(tetra-hydro-2H-pyran-4-yl)-1H-pyrazol-4-yl]amino}-1,3,5-triazin-2-yl)-2-(hydroxymethyl)phenyl]-6-cycloprop-yl-8-fluoro-3,4-dihydro-isoquinolin-1(2H)-one], the IC50 was 0.2 nM.

With `CN1CCN(c2ccc(Nc3nc(N)nc(-c4cccc(N5CCc6cc(C7CC7)cc(F)c6C5=O)c4CO)n3)cc2)CC1` [Example 193, 2-[3-(4-Amino-6-{[4-(4-methylpiperazin-1-yl)phenyl]amino}-1,3,5-triazin-2-yl)-2-(hy-droxymethyl)phenyl]-6-cyclopropyl-8-fluoro-3,4-dihydroisoquinolin-1(2H)-one], the concentration for half-maximal inhibition (IC50) came out at 1.1 nM.

For the molecule `COCCOc1ccc(Nc2nc(N)nc(-c3cccc(NC(=O)c4ccc(C(C)(C)C)cc4)c3C)n2)cc1` [Example 34, N-[3-(4-Amino-6-{[4-(2-methoxyethoxy)phenyl]amino}-1,3,5-triazin-2-yl)-2-methylphenyl]-4-(tert-butyl)benz-amide], the IC50 turned out to be 4 nM.

As for `CC(C)(CO)c1ccc(C(=O)Nc2cccc(-c3nc(N)nc(Nc4ccc(N5CCOCC5)cc4)n3)c2CO)cc1` [Example 201, N-(3-{4-Amino-6-[(4-mor-pholinophenyl)amino]-1,3,5-triazin-2-yl}-2-(hydroxymethyl)phe-nyl)-4-(1-hydroxy-2-meth-ylpropan-2-yl)benz-amide], the IC50 was 3.4 nM.

`CC(C)(C)c1ccc(C(=O)Nc2cccc(-c3nc(N)nc(Nc4ccc(Cn5cccn5)cc4)n3)c2CO)cc1` [Example 160, N-{3-[4-({4-[(1H-Pyra-zol-1-yl)methyl]phenyl}amino)-6-amino-1,3,5-triazin-2-yl]-2-(hy-droxymethyl)phenyl}-4-(tert-butyl)benzamide]: the IC50 stood at 0.8 nM.

In the case of `Cc1c(NC(=O)c2ccc(C(C)(C)C)cc2)cccc1-c1ncnc(Nc2ccc(CN3CCOCC3)cc2)n1` [Example 25, 4-(tert-Butyl)-N-[2-meth-yl-3-(4-{[4-(morpho-linomethyl)phenyl]ami-no}-1,3,5-triazin-2-yl)phenyl]benzamide], the IC50 was 3.5 nM.

In the case of `CC(C)(C)c1ccc(C(=O)Nc2cccc(-c3nc(N)nc(Nc4ccc(N5CCOCC5)cn4)n3)c2CO)cc1` [Example 99, N-(3-{4-Amino-6-[(5-morpholinopyridin-2-yl)amino]-1,3,5-triazin-2-yl}-2-(hydroxymeth-yl)phenyl)-4-(tert-butyl)benzamide], the IC50 was determined as 10.6 nM.

For `CC(C)(C#N)c1cc(F)c2c(c1)CCN(c1cccc(-c3nc(N)nc(Nc4cn[nH]c4)n3)c1CO)C2=O` [Example 206, 2-[2-(3-{4-[(1H-Pyrazol-4-yl)amino]-6-amino-1,3,5-triazin-2-yl}-2-(hydroxymethyl)phe-nyl)-8-fluoro-1-oxo-1,2,3,4-tetrahydro-isoquinolin-6-yl]-2-meth-ylpropanenitrile], the IC50 turned out to be 1 nM.

For the molecule `CC(C)(C)c1ccc(C(=O)Nc2cccc(-c3nc(N)nc(Nc4ccc(CN5CCC(O)CC5)cc4)n3)c2CO)cc1` [Example 94, N-{3-[4-Amino-6-({4-[(4-hydroxypiperidin-1-yl)methyl]phenyl}ami-no)-1,3,5-triazin-2-yl]-2-(hydroxymethyl)phe-nyl}-4-(tert-butyl) benzamide], the IC50 came to 0.4 nM.

For `Nc1nc(Nc2cnn(CCN3CCOCC3)c2)nc(-c2cccc(N3CCc4cc(C5CC5)cc(F)c4C3=O)c2CO)n1` [Example 237, 2-[3-(4-Amino-6-{[1-(2-morpholinoethyl)-1H-pyrazol-4-yl]amino}-1,3,5-triazin-2-yl)-2-(hydroxymethyl)phenyl]-6-cyclopropyl-8-fluoro-3,4-dihydro-isoquinolin-1(2H)-one], the IC50 was 0.8 nM.

For `CC(C)(C)c1ccc(C(=O)Nc2cccc(-c3nc(N)nc(Nc4cccc(CO)c4)n3)c2CO)cc1` [Example 122, N-[3-(4-Amino-6-{[3-(hy-droxymethyl)phenyl]amino}-1,3,5-triazin-2-yl)-2-(hydroxymethyl)phenyl]-4-(tert-butyl)benzamide], the IC50 was found to be 0.8 nM.

On to `Nc1nc(Nc2ccn([C@@H]3CCOC3)c2)nc(-c2cccc(N3CCc4cc(C5CC5)cc(F)c4C3=O)c2CO)n1` [Example 250, (R)-2-[3-(4-Amino-6-{[1-(tetrahydrofuran-3-yl)-1H-pyrrol-3-yl]ami-no}-1,3,5-triazin-2-yl)-2-(hydroyxmethyl)phenyl]-6-cyclopropyl-8-fluoro-3,4-dihydro-isoquinolin-1(2H)-one], for which the IC50 was determined as 1.5 nM.

As to `CC(C)(C)c1cc2c(s1)C(=O)N(c1cccc(-c3nc(N)nc(Nc4ccc(CN5CCOCC5)cc4)n3)c1CO)C2` [Example 77, 5-[3-(4-Amino-6-{[4-(morpho-linomethyl)phe-nyl]amino}-1,3,5-triazin-2-yl)-2-(hydroxymeth-yl)phenyl]-2-(tert-butyl)-4H-thieno[2,3-c]pyrrol-6(5H)-one], the IC50 was determined as 3.4 nM.

Take `CN1CCN(C)C(c2ccc(Nc3nc(N)nc(-c4cccc(NC(=O)c5cc6c(s5)CCCC6)c4CO)n3)cc2)C1=O` (centres unmarked) [Example 130, N-[3-(4-Amino-6-{[4-(1,4-dimethyl-3-oxopipe-razin-2-yl)phenyl]ami-no}-1,3,5-triazin-2-yl)-2-(hydroxymethyl)phenyl]-4,5,6,7-tetra-hydrobenzo[b]thiophene-2-carboxamide]: the IC50 is 0.5 nM.

In the case of `COCCOc1ccc(Nc2nc(N)nc(-c3cccc(NC(=O)c4ccc(C(C)(C)C)cc4)c3CO)n2)cc1` [Example 74, N-[3-(4-Amino-6-{[4-(2-methoxyethoxy)phenyl]amino}-1,3,5-triazin-2-yl)-2-(hydroxymeth-yl)phenyl]-4-(tert-butyl) benzamide], the IC50 turned out to be 0.7 nM.

With `Nc1nc(Nc2ccc(N3CCOCC3)c(F)c2)nc(-c2cccc(N3CCc4cc(C5CC5)cc(F)c4C3=O)c2CO)n1` [Example 242, 2-(3-{4-Amino-6-[(3-fluoro-4-morpholinophe-nyl)amino]-1,3,5-tri-azin-2-yl}-2-(hydroxymeth-yl)phenyl)-6-cyclo-propyl-8-fluoro-3,4-di-hydroisoquinolin-1(2H)-one], the IC50 came to 1.5 nM.

Take `CN1CCC(n2cc(Nc3nc(N)nc(-c4cccc(N5CCc6cc(C7CC7)cc(F)c6C5=O)c4CO)n3)cn2)CC1` [Example 252, 2-[3-(4-Amino-6-{[1-(1-methylpiperidin-4-yl)-1H-pyrazol-4-yl]ami-no}-1,3,5-triazin-2-yl)-2-(hydroxymethyl)phenyl]-6-cyclopropyl-8-fluoro-3,4-dihydro-isoquinolin-1(2H)-one]: the IC50 is 0.8 nM.

What is called IC50 is the midpoint of a concentration-inhibition curve.
